# Values quoted from earlier work in PMC9230797, “Integration of a Physiologically Based Pharmacokinetic and Pharmacodynamic Model for Tegoprazan and Its Metabolite: Application for Predicting Food Effect and Intragastric pH Alterations” (Pharmaceutics, 2022).
# Where two headings read alike, the source gives them in different places.
# How the values were obtained:
# [1] = set-up: method as in PMID 28378544; conditions: cited from earlier work
# [2] = cited from earlier work
# [3] = set-up: method as in PMID 19006606; conditions: cited from earlier work
structure (smiles),measurement,setting,value
COc1ccc2[nH]c([S+]([O-])Cc3ncc(C)c(OC)c3C)nc2c1 (stereo not drawn) [omeprazole],mean AUC0–12 h,"[1]; CYP2C19 EM, multiple administrations",1715 ng·h/mL
same,mean AUC0–12 h,"[1]; CYP2C19 EM, single administration",713.5 ng·h/mL
same,mean AUC0–12 h,"[1]; CYP2C19 IM, multiple administrations",2087 ng·h/mL
same,mean AUC0–12 h,"[1]; CYP2C19 IM, single administration",972.5 ng·h/mL
same,mean AUC0–12 h,"[1]; CYP2C19 PM, multiple administrations",3669 ng·h/mL
same,mean AUC0–12 h,"[1]; CYP2C19 PM, single administration",3652 ng·h/mL
same,AUC0–12 h ratio PM vs EM,[1]; multiple administrations,2.14 fold
same,AUC0–12 h ratio PM vs IM,[1]; multiple administrations,1.76 fold
same,AUC0–12 h ratio PM vs EM,[1]; single administration,5.12 fold
same,AUC0–12 h ratio PM vs IM,[1]; single administration,3.76 fold
same,"PK parameters (Tmax, AUC, half-life, Cmax) after a high-fat meal",[2],tended to fluctuate significantly
COc1ccnc(C[S+]([O-])c2nc3ccc(OC(F)F)cc3[nH]2)c1OC (stereo not drawn) [pantoprazole],"PK parameters (Tmax, AUC, half-life, Cmax) after a high-fat meal",[2],tended to fluctuate significantly
COCCCOc1ccnc(C[S+]([O-])c2nc3ccccc3[nH]2)c1C (stereo not drawn) [rabeprazole],"PK parameters (Tmax, AUC, half-life, Cmax) after a high-fat meal",[2],tended to fluctuate significantly
COc1ccc2[nH]c([S+]([O-])Cc3ncc(C)c(OC)c3C)nc2n1 (stereo not drawn) [tenatoprazole],plasma half-life,[3],up to 9 h
CNCc1cc(-c2ccccc2F)n(S(=O)(=O)c2cccnc2)c1 [vonoprazan],effect of food intake on PK parameters,[2],not significantly affected
